Test results taken from patent US20200188426A1, “WOUND MANAGEMENT METHOD” (priority 2018, published 2020).

Tested on: microbes (bacteria, fungi, and viruses)
Experiment: testing of methylene chloride as microbicidal agent
Type: cell-based
Settings: in liquid form, prior to evaporation

Structure (SMILES): ClCCl [methylene chloride]
- microbicidal activity on contact: kill microbes (bacteria, fungi, and viruses) on contact
